Experimental data reported in patent US12655116B2, “Substituted isophthalic acid diamides” (Bayer Aktiengesellschaft, priority 2020, dated 2026).

What was measured:
[1] = test system: MATIN; assay: Pre-emergence herbicidal action against MATIN; assay type: in vivo, Matricaria inodora
In short: (§1)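 Visual rating at 3 weeks vs untreated pots; 0–100% scale, 100% = plants died. Treatment: aqueous WP/EC spray onto covering soil, 600–800 l/ha, 0.2% wetter, seeds in sandy loam.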

[2] = test system: VERPE; assay: Pre-emergence herbicidal action against VERPE; assay type: in vivo, Veronica persica
In short: as §1

[3] = test system: VERPE; assay: Post-emergence herbicidal action against VERPE; assay type: in vivo, Veronica persica; settings: 20 g/ha
In short: (§2)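 Greenhouse pot plants in sandy loam were sprayed at the one-leaf stage, 2 to 3 weeks after sowing, with WP or EC formulations as aqueous suspension or emulsion (600 to 800 l/ha water, 0.2% wetting agent). About 3 weeks later, damage was scored visually against untreated controls as % action (100% = dead, 0% = like control).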

[4] = test system: SETVI; assay: Post-emergence herbicidal action against SETVI; assay type: in vivo, Setaria viridis; settings: dosage 20 g/ha
In short: as §2

[5] = test system: POLCO; assay: Pre-emergence herbicidal action against POLCO; assay type: in vivo, Polygonum convolvulus; settings: dosage 80 g/ha
Description: Seeds of monocotyledonous and dicotyledonous weed plants and crop plants are laid out in sandy loam soil in wood-fiber pots and covered with soil. The compounds of the invention, formulated in the form of wettable powders (WP) or as emulsion concentrates (EC), are then applied to the surface of the covering soil in the form of an aqueous suspension or emulsion at a water application rate equivalent to 600 to 800 l/ha, with addition of 0.2% wetting agent. After the treatment, the pots are placed in a greenhouse and kept under good growth conditions for the trial plants. The damage to the test plants is scored visually after a test period of 3 weeks by comparison with untreated controls (herbicidal activity in percent (%): 100% activity=the plants have died, 0% activity=like control plants). […] The tables below illustrate, in an illustrative manner, the post-emergence herbicidal action of the compounds of the invention, the herbicidal activity being stated in percent.

[6] = test system: SETVI; assay: Pre-emergence herbicidal action against SETVI; assay type: in vivo, Setaria viridis
In short: as §1

[7] = test system: ABUTH; assay: Pre-emergence herbicidal action against ABUTH; assay type: in vivo, Abutilon theophrasti; settings: for Pre-emergence action against ABUTH (herbicidal activity): 80 g/ha, scored visually after 3 weeks vs untreated controls (100% = plants have died, 0% = like control plants); for Pre-emergence action against ABUTH (herbicidal activity in percent): dosage 20 g/ha, scored visually after 3 weeks vs untreated controls, 100% = plants have died, 0% = like control plants
In short: as §1

[8] = test system: PHBPU; assay: Post-emergence herbicidal action against PHBPU; assay type: in vivo, Pharbitis purpurea; settings: dosage 20 g/ha
In short: as §2

[9] = test system: AMARE; assay: Post-emergence herbicidal action against AMARE; assay type: in vivo, Amaranthus retroflexus; settings: 20 g/ha, visual assessment about 3 weeks after treatment, 100% = plants have died, 0% = like control plants
In short: as §2

[10] = test system: VIOTR; assay: Pre-emergence herbicidal action against VIOTR; assay type: in vivo, Viola tricolor; settings: dosage 80 g/ha
In short: as §1

[11] = test system: DIGSA; assay: Post-emergence herbicidal action against DIGSA; assay type: in vivo, Digitaria sanguinalis; settings: 20 g/ha
In short: as §2

[12] = test system: AMARE; assay: Pre-emergence herbicidal action against AMARE; assay type: in vivo, Amaranthus retroflexus
In short: as §1

[13] = test system: ALOMY; assay: Pre-emergence herbicidal action against ALOMY; assay type: in vivo, Alopecurus myosuroides; settings: 80 g/ha, pre-emergence, scored visually after 3 weeks vs untreated controls (100% = plants have died, 0% = like control plants)
In short: as §1

[14] = test system: ECHCG; assay: Post-emergence herbicidal action against ECHCG; assay type: in vivo, Echinochloa crus-galli
In short: as §2

[15] = test system: ABUTH; assay: Post-emergence herbicidal action against ABUTH; assay type: in vivo, Abutilon theophrasti; settings: dosage 20 g/ha, visual assessment about 3 weeks after treatment vs untreated controls
In short: as §2

[16] = test system: DIGSA; assay: Pre-emergence herbicidal action against DIGSA; assay type: in vivo, Digitaria sanguinalis
In short: as §1

[17] = test system: VIOTR; assay: Post-emergence herbicidal action against VIOTR; assay type: in vivo, Viola tricolor
In short: as §2

[18] = test system: ECHCG; assay: Pre-emergence herbicidal action against ECHCG; assay type: in vivo, Echinochloa crus-galli; settings: 80 g/ha
In short: as §1

[19] = test system: ALOMY; assay: Post-emergence herbicidal action against ALOMY; assay type: in vivo, Alopecurus myosuroides; settings: dosage 20 g/ha, visual assessment about 3 weeks after treatment vs untreated controls
In short: as §2

[20] = test system: PHBPU; assay: Pre-emergence herbicidal action against PHBPU; assay type: in vivo, Pharbitis purpurea; settings: dosage 80 g/ha
In short: as §1

[21] = 20 g/ha, scored visually after 3 weeks vs untreated controls, 100% = plants have died, 0% = like control plants
[22] = 80 g/ha, scored visually after 3 weeks vs untreated controls (100% = plants have died, 0% = like control plants)

Row | SMILES | Pre-emergence action against MATIN in % ([1]; dosage 20 g/ha) [%] | Pre-emergence action against MATIN in % ([1]; dosage 80 g/ha) [%] | Pre-emergence action against POLCO in % [5] [%] | Pre-emergence action against SETVI in % ([6]; dosage 80 g/ha) [%] | Pre-emergence action against ABUTH (herbicidal activity) [7] [%] | Pre-emergence action against ABUTH (herbicidal activity in percent) [7] [%] | Post-emergence action against PHBPU in % [8] [%] | Post-emergence action at 20 g/ha against AMARE in % [9] [%] | Pre-emergence action against VIOTR in % [10] [%] | Pre-emergence action against AMARE in % [12, 21] [%] | Pre-emergence action against AMARE in % [12, 22] [%] | Pre-emergence action against ALOMY (herbicidal activity) [13] [%] | Post-emergence action against ECHCG in % ([14]; dosage 20 g/ha) [%] | Post-emergence action against ABUTH in % [15] [%] | Pre-emergence action against DIGSA in % ([16]; dosage 20 g/ha) [%] | Pre-emergence action against DIGSA in % ([16]; dosage 80 g/ha) [%] | Post-emergence action against VIOTR in % ([17]; 20 g/ha) [%] | Pre-emergence action against ECHCG in % [18] [%] | Pre-emergence action against PHBPU in % [20] [%] | also measured
1 | CCn1nnnc1NC(=O)c1ccc(C(F)F)c(C(=O)NCCOC)c1Cl [Example 2-156] | 100 | 100 | 90 | 100 | 100 | 100 | 90 | 90 | 100 | 100 | 100 | 100 | 90 | 90 | 100 | 100 | 80 | 100 |  | Pre-emergence action against VERPE in % ([2]; dosage 20 g/ha): 80%; Pre-emergence action against VERPE in % ([2]; dosage 80 g/ha): 100%; Post-emergence action against VERPE in % [3]: 90%; Post-emergence action against SETVI in % [4]: 80%; Post-emergence action against DIGSA [11]: 80%; Post-emergence action against ECHCG in % ([14]; dosage 5 g/ha): 90%; Post-emergence action against ALOMY in % [19]: 90%
2 | CCn1nnnc1NC(=O)c1ccc(C(F)(F)F)c(C(=O)NCC2CCCO2)c1Cl (centres unmarked) [Example 2-141] | 80 | 90 | 80 | 100 |  |  | 80 | 80 | 90 | 100 | 100 | 90 | 80 |  |  | 90 |  | 80 | 80 | Pre-emergence action against SETVI in % ([6]; dosage 20 g/ha): 90%
3 | Cn1nnnc1NC(=O)c1ccc(C(F)(F)F)c(C(=O)NC2CCC2)c1Cl [Example 1-146] | 100 | 100 | 80 | 80 | 100 | 100 |  | 100 | 100 | 100 | 100 | 90 | 80 | 80 | 100 | 100 | 100 | 100 | 80 | Post-emergence action against VIOTR in % ([17]; 5 g/ha): 80%
